Experimental data: patent US20090312575A1, “Process For Preparing A Benzoylbenzeneacetamide Derivative” (Medichem, S.A., priority 2008, published 2009)
≈ marks a conversion by molar mass, not a printed value. Read-outs that look alike come from different tables or passages of the source.

Assays:
[1] = solubility profile at room temperature in organic solvents; assay type: physicochemical
Description: Optionally, water can be added to the suspension earlier than the filtration. Further, this filtration step introduces an additional purification step.

[2] = polymorphic form after one year storage (XRD and IR); assay type: physicochemical; settings: one year at room temperature and ambient atmosphere conditions
Description: X-ray Powder Diffraction (XRD). The XRD diffractograms were obtained using a RX SIEMENS D5000 diffractometer with a vertical goniometer, a copper anodic tube, and radiation CuKα, λ=1, 54056 Á.
Infrared Spectra (IR). Fourier transform IR spectra were acquired on a Thermo Nicolet Nexus spectrometer, and polymorphs were characterized in potassium bromide pellets.
Analytical data: XRD: Form A, see FIG. 1; IR: see FIG. 2; DSC: see FIG. 7. Analytical data of the compound after one year at room temperature and ambient atmosphere conditions (XRD and IR): Form A.
Analytical data: XRD: Form B, see FIG. 3; DSC: see FIG. 8. Analytical data of the compound after one year at room temperature and ambient atmosphere conditions (XRD and IR): Form B.

Row | Structure (SMILES) | solubility ([1]; acetonitrile, organic solvent or mixture, acetonitrile (reaction mixture solvent), read-out: solubility in acetonitrile) [mg/mL] | solubility in tetrahydrofuran ([1]; tetrahydrofuran, room temperature) | crystalline form after one year (XRD and IR) ([2]; listed as Example 5) | solubility ([1]; 1:1 mixture of tetrahydrofuran/water, aqueous with cosolvent or surfactant or cyclodextrin, 1:1 tetrahydrofuran/water, room temperature, read-out: solubility in a 1:1 mixture of tetrahydrofuran/water) [mg/mL] | solubility ([1]; tetrahydrofuran, organic solvent or mixture, tetrahydrofuran, room temperature, read-out: solubility in tetrahydrofuran) [mg/mL] | crystalline form after one year (XRD and IR) ([2]; listed as Example 4)
1 | CSC(C(N)=O)c1cccc(C(=O)c2ccccc2)c1N (stereo not drawn) [compound (IV) Form B, 2-amino-3-benzoyl-α-(methylthio)benzeneacetamide] | ~5.9 (≈ 19.6 mM) | approx. 33 mg/mL | Form B | – | – | –
2 | CSC(C(N)=O)c1cccc(C(=O)c2ccccc2)c1N (stereo not drawn) [compound (IV) Form A, 2-amino-3-benzoyl-α-(methylthio)benzeneacetamide] | – | – | – | ~50 (≈ 166 mM) | ~50 (≈ 166 mM) | Form A
